Data: ChEMBL document CHEMBL3585268, “Treatment of Cancer with NAMPT Inhibitors” (2015)

Legend:
Format in all cases: functional
Mus musculus [1] = assay: In vivo inhibition of NAMPT in human A2780 cells xenografted in Harlan nude mouse assessed as NAD+ level per mg of tissue at 5 mg/kg, po bid measured 7 hrs post second dose by LC-MS analysis (reference value: 55.03 to 56.3 pmol)
Mus musculus [2] = assay: In vivo inhibition of NAMPT in human A2780 cells xenografted in Harlan nude mouse assessed as NAD+ level per mg of tissue at 10 mg/kg, po bid measured 7 hrs post second dose by LC-MS analysis (reference value: 55.03 to 56.3 pmol)
Mus musculus [3] = assay: In vivo inhibition of NAMPT in human A2780 cells xenografted in Harlan nude mouse assessed as NAD+ level per mg of tissue at 20 mg/kg, po bid measured 7 hrs post second dose by LC-MS analysis (reference value: 55.03 to 56.3 pmol)
Mus musculus [4] = assay: In vivo inhibition of NAMPT in human NCI-H1155 cells xenografted in Harlan nude mouse assessed as NAD+ level per mg of tissue at 5 mg/kg, po bid measured 7 hrs post second dose by LC-MS analysis (reference value: 20.08 to 57.97 pmol)
Mus musculus [5] = assay: In vivo inhibition of NAMPT in human NCI-H1155 cells xenografted in Harlan nude mouse assessed as NAD+ level per mg of tissue at 10 mg/kg, po bid measured 7 hrs post second dose by LC-MS analysis (reference value: 20.08 to 57.97 pmol)
Mus musculus [6] = assay: In vivo inhibition of NAMPT in human NCI-H1155 cells xenografted in Harlan nude mouse assessed as NAD+ level per mg of tissue at 20 mg/kg, po bid measured 7 hrs post second dose by LC-MS analysis (reference value: 20.08 to 57.97 pmol)
Mus musculus [7] = assay: In vivo inhibition of NAMPT in human A2780 cells xenografted in Harlan nude mouse assessed as NAD+ level per mg of tissue at 8 mg/kg, po bid measured 7 hrs post second dose by LC-MS analysis (reference value: 55.03 to 56.3 pmol)
Mus musculus [8] = assay: In vivo inhibition of NAMPT in human A2780 cells xenografted in Harlan nude mouse assessed as NAD+ level per mg of tissue at 16 mg/kg, po bid measured 7 hrs post second dose by LC-MS analysis (reference value: 55.03 to 56.3 pmol)
Mus musculus [9] = assay: In vivo inhibition of NAMPT in human A2780 cells xenografted in Harlan nude mouse assessed as NAD+ level per mg of tissue at 32 mg/kg, po bid measured 7 hrs post second dose by LC-MS analysis (reference value: 55.03 to 56.3 pmol)
Mus musculus [10] = assay: In vivo inhibition of NAMPT in human NCI-H1155 cells xenografted in Harlan nude mouse assessed as NAD+ level per mg of tissue at 8 mg/kg, po bid measured 7 hrs post second dose by LC-MS analysis (reference value: 20.08 to 57.97 pmol)
Mus musculus [11] = assay: In vivo inhibition of NAMPT in human NCI-H1155 cells xenografted in Harlan nude mouse assessed as NAD+ level per mg of tissue at 16 mg/kg, po bid measured 7 hrs post second dose by LC-MS analysis (reference value: 20.08 to 57.97 pmol)
Mus musculus [12] = assay: In vivo inhibition of NAMPT in human NCI-H1155 cells xenografted in Harlan nude mouse assessed as NAD+ level per mg of tissue at 32 mg/kg, po bid measured 7 hrs post second dose by LC-MS analysis (reference value: 20.08 to 57.97 pmol)

SMILES	Activity (Mus musculus [1]) [pmol]	Activity (Mus musculus [2]) [pmol]	Activity (Mus musculus [3]) [pmol]	Activity (Mus musculus [4]) [pmol]	Activity (Mus musculus [5]) [pmol]	Activity (Mus musculus [6]) [pmol]	Activity (Mus musculus [7]) [pmol]	Activity (Mus musculus [8]) [pmol]	Activity (Mus musculus [9]) [pmol]	Activity (Mus musculus [10]) [pmol]	Activity (Mus musculus [11]) [pmol]	Activity (Mus musculus [12]) [pmol]
CC(C)(O)CS(=O)(=O)Nc1ccc2c(c1)CCN(C(=O)COc1cccnc1)C2	5.04	2.55	3.29	7.48	3.63	1.82	–	–	–	–	–	–
COCCS(=O)(=O)Nc1ccc2c(c1)CCN(C(=O)COc1cccnc1)C2	–	–	–	–	–	–	3.97	6.52	6.38	5.19	1.98	0.84
